Conditions: 100 kPa, Liquid, Capillary tube (Ostwald / Ubbelohde) method

CCCCCCCCCCl [1-chlorononane]
Conditions | kinematic viscosity [m2/s]
296.21 K | 1.68e-06
300.65 K | 1.57e-06
313.15 K | 1.3e-06
318.15 K | 1.21e-06
323.15 K | 1.13e-06
328.15 K | 1.07e-06
333.15 K | 1e-06
338.15 K | 9.48e-07
343.15 K | 8.97e-07
348.15 K | 8.52e-07
353.15 K | 8.09e-07
358.15 K | 7.72e-07
363.15 K | 7.37e-07
368.15 K | 7.04e-07
373.15 K | 6.73e-07
383.15 K | 6.19e-07
393.15 K | 5.72e-07
403.15 K | 5.31e-07
413.15 K | 4.94e-07

CCCCCCCI [1-iodoheptane]
Conditions | kinematic viscosity [m2/s]
296.35 K | 1.18e-06
297.2 K | 1.17e-06
303.5 K | 1.06e-06
313.2 K | 9.24e-07
318.15 K | 8.67e-07
323.15 K | 8.12e-07
328.15 K | 7.66e-07
333.15 K | 7.25e-07
338.15 K | 6.87e-07
343.15 K | 6.53e-07
348.15 K | 6.2e-07
353.15 K | 5.91e-07
363.15 K | 5.41e-07
368.15 K | 5.17e-07
373.15 K | 4.98e-07
378.15 K | 4.76e-07
383.15 K | 4.58e-07
393.15 K | 4.24e-07
403.15 K | 3.96e-07
413.15 K | 3.7e-07
423.15 K | 3.46e-07

CCCCCCI [1-iodohexane]
Conditions | kinematic viscosity [m2/s]
297.25 K | 9.1e-07
298.15 K | 9.03e-07
298.25 K | 9e-07
300.25 K | 8.74e-07
318.15 K | 7.01e-07
319.15 K | 6.89e-07
323.15 K | 6.63e-07
328.15 K | 6.26e-07
333.15 K | 5.97e-07
338.15 K | 5.68e-07
343.15 K | 5.39e-07
348.15 K | 5.18e-07
358.15 K | 4.74e-07
368.15 K | 4.37e-07
383.15 K | 3.91e-07
393.15 K | 3.64e-07
413.15 K | 3.19e-07
423.15 K | 3.01e-07

From the NIST ThermoML archive (doi:10.1021/je060158k)
